According to patent US9938516B2, “Non-natural amino acid tRNA synthetases for para-methylazido-L-phenylalanine” (SUTRO BIOPHARMA, INC., priority 2013, dated 2018):

Assay: copper-free click conjugation kinetics with DBCO-PEG
Type: physicochemical
Settings: 10-fold molar excess DBCO-PEG; 25° C., ionic strength 0.5 M (KCl), 0.005% Tween-20, phosphate buffer
Protocol: The small molecule conjugation kinetics of pAzF and pAMF were compared. In particular, pAzF and pAMF were reacted at increasing concentrations with a 10-fold molar excess of dibenzocyclooctyl-polyethylene glycol (DBCO-PEG) compound (FIG. 2A and FIG. 2C) in a copper-free click reaction. First-order kinetics at 25° C., ionic strength 0.5 M (KCl), and 0.005% Tween-20 in phosphate buffer were determined under pseudo-first-order conditions in triplicate, using a SpectraMax M5 plate reader with 96-well polystyrene plates (Molecular Devices, Sunnyvale, Calif.). The formation of conjugated product was measured by the decrease in absorbance of the strained cyclooctoalkyne DBCO at 306 nm in the presence of increasing concentrations of pAzF or pAMF. The second-order rate constants were calculated according to kcat (M−1 sec-1)=kobs/[Azido].

[N-]=[N+]=NCc1ccc(C[C@H](N)C(=O)O)cc1 [pAMF, para-azidomethyl-L-phenylalanine]
reaction rate relative to pAzF: seven-fold higher
